Data from patent US20230062100A1, “SUBSTITUTED AMINOQUINOLONES AS DGKALPHA INHIBITORS FOR IMMUNE ACTIVATION” (Bayer Aktiengesellschaft, priority 2019, published 2023).

Target: DGKα (Homo sapiens, UniProt P23743)
Experiment: Human DGKα kinase activity inhibition assay (ADP-Glo)
Format: biochemical
Conditions: in vitro human DGKα kinase activity inhibition assay
Method: Human DGKα inhibitory activity of compounds of the present invention was quantified employing the human DGKα kinase activity assay as described in the following paragraphs. In essence, the enzyme activity was measured by quantification of the adenosine-di-phosphate (ADP) generated as a co-product of the enzyme reaction via the “ADP-Glo™ Kinase Assay” kit from the company Promega. This detection system works as follows: In a first step the ATP not consumed in the kinase reaction is quantitatively converted to cAMP employing an adenylate cyclase (“ADP-Glo-reagent”), then the adenylate cyclase is stopped and the ADP generated in the kinase reaction converted to ATP, which subsequently generates in a luciferase-based reaction a glow-luminescence signal (“Kinase Detection Reagent”). C-terminally FLAG-tagged, recombinant full-length human DGKα (expressed in baculovirus infected insect cells, purified using anti-Flag pulldown and size exclusion chromatography as described below, DGKα_hu_1) was used as enzyme. As substrate for the kinase 1,2-dioleoyl-sn-glycerol, reconstituted in octyl-β-D-glucopyranoside micelles, was used. For the preparation of the micelles, 1 volume of a 16.1 mM solution of 1,2-dioleoyl-sn-glycerol (Avanti, Cat. #O8001-25G) in chloroform was slowly evaporated using a nitrogen stream. Subsequently, 22.55 volumes of a 510 mM solution of octyl-β-D-glucopyranoside (Sigma-Aldrich, Cat. #O8001-10G) in 50 mM MOPS buffer (pH 7.4) were added, and the mixture was sonicated in an ultrasonic bath for 20 s. Then 35 volumes of 50 mM MOPS buffer (pH 7.4) were added to yield a solution of 0.28 mM 1,2 dioleoyl-sn-glycerol and 200 mM octyl-β-D-glucopyranoside, which was aliquoted, flash-frozen in liquid nitrogen, and stored at −20° C. until use. For each experiment, a fresh aliquot was quickly thawed and diluted 24-fold with aqueous assay buffer (described below) containing 95.7 μM adenosine triphosphate (Promega) to yield a 1.67-fold concentrated substrate solution. For the assay 50 nl of a 100-fold concentrated solution of the test compound in dimethyl sulfoxide (DMSO, Sigma) was pipetted into either a white 1536-well or a white low-volume 384-well microtiter plate (both Greiner Bio-One, Frickenhausen, Germany). […] The concentration of DGK a was adjusted depending of the activity of the enzyme lot and was chosen appropriate to have the assay in the linear range, a typical concentration is about 0.1 nM. The reaction was stopped by the addition of 2.5 μl of “ADP-Glo-reagent” (1 to 1.5 diluted with water) and the resulting mixture was incubated at 22° C. for 1 h to convert the ATP not consumed in the kinase reaction completely to cAMP. […] The amount of emitted light was taken as a measure for the amount of ADP generated and thereby for the activity of the DGKα.

DGKα, sequence (P23743 with tags, fused parts or gaps): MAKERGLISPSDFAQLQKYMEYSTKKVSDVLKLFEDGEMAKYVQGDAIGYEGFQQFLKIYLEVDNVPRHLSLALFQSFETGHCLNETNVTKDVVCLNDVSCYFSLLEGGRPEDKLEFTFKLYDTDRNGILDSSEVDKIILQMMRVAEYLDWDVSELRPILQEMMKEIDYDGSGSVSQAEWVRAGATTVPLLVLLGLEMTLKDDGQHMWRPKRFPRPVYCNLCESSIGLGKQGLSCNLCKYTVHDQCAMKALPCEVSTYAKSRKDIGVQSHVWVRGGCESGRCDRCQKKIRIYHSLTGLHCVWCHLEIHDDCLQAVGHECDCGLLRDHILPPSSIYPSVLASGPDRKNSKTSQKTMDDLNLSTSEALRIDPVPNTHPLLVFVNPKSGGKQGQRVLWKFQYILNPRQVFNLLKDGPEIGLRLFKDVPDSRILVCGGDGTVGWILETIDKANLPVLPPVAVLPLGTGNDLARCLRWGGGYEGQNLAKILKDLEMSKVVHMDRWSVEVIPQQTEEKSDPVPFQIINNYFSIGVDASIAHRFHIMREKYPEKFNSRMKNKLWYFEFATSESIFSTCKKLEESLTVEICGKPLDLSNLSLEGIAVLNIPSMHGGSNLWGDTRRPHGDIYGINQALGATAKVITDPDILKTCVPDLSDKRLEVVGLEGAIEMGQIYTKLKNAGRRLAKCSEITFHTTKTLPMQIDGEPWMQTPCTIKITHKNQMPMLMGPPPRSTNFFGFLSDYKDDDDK

For `CCOC(=O)c1ccc(OC2CCN(c3c(C(N)=O)c(=O)n(C)c4ccccc34)CC2)cc1` [Example 51, ethyl 4-{[1-(3-carbamoyl-1-methyl-2-oxo-1,2-dihydroquinolin-4-yl)piperidin-4-yl]oxy}benzoate], the IC50 was 6.1 nM.
With `Cn1c(=O)c(C(N)=O)c(N2CCC(Oc3ccc(OC(F)F)cc3)CC2)c2ccccc21` [Example 52, 4-{4-[4-(difluoromethoxy)phenoxy]piperidin-1-yl}-1-methyl-2-oxo-1,2-dihydroquinoline-3-carboxamide] the IC50 was 3.8 nM.
`Cn1c(=O)c(C#N)c(N2CCC(Sc3ccccc3)CC2)c2ccccc21` [Example 53, 1-methyl-2-oxo-4-[4-(phenylsulfanyl)piperidin-1-yl]-1,2-dihydroquinoline-3-carbonitrile] showed an IC50 of 1.1 nM.
Molecule `Cn1c(=O)c(C#N)c(N2CCC(Oc3ccccc3)CC2)c2ccc(Br)cc21` [Example 54, 7-bromo-1-methyl-2-oxo-4-(4-phenoxypiperidin-1-yl)-1,2-dihydroquinoline-3-carbonitrile] has an IC50 of 5.8 nM.
In the case of `Cn1c(=O)c(C#N)c(N2CCC(Sc3ccccc3)CC2)c2ccc(Br)cc21` [Example 55, 7-bromo-1-methyl-2-oxo-4-[4-(phenylsulfanyl)piperidin-1-yl]-1,2-dihydroquinoline-3-carbonitrile], the IC50 is reported as 4.4 nM.
Work on `Cn1c(=O)c(C#N)c(N2CCC(Oc3ccc(F)cc3)CC2)c2ccc(Br)cc21` [Example 56, 7-bromo-4-[4-(4-fluorophenoxy)piperidin-1-yl]-1-methyl-2-oxo-1,2-dihydroquinoline-3-carbonitrile] yielded an IC50 of 9.9 nM.
`Cn1c(=O)c(C#N)c(N2CCC(Oc3ccc(Cl)cc3)CC2)c2ccc(Br)cc21` [Example 57, 7-bromo-4-[4-(4-chlorophenoxy)piperidin-1-yl]-1-methyl-2-oxo-1,2-dihydroquinoline-3-carbonitrile] showed an IC50 of 17 nM.
For `Cn1c(=O)c(C#N)c(N2CCC(Oc3ccc(OC(F)(F)F)cc3)CC2)c2ccc(Br)cc21` [Example 58, 7-bromo-1-methyl-2-oxo-4-{4-[4-(trifluoromethoxy)phenoxy]piperidin-1-yl}-1,2-dihydroquinoline-3-carbonitrile], the IC50 was 19 nM.
Molecule `Cn1c(=O)c(C#N)c(N2CCC(Oc3ccc(C(F)(F)F)cc3)CC2)c2ccc(Br)cc21` [Example 59, 7-bromo-1-methyl-2-oxo-4-{4-[4-(trifluoromethyl)phenoxy]piperidin-1-yl}-1,2-dihydroquinoline-3-carbonitrile] has an IC50 of 18 nM.
Work on `Cn1c(=O)c(C#N)c(N2CCC(Oc3cccc(Cl)c3)CC2)c2ccc(Br)cc21` [Example 60, 7-bromo-4-[4-(3-chlorophenoxy)piperidin-1-yl]-1-methyl-2-oxo-1,2-dihydroquinoline-3-carbonitrile] yielded an IC50 of 27 nM.
In the case of `Cn1c(=O)c(C#N)c(N2CCC(Oc3cccc(OC(F)(F)F)c3)CC2)c2ccc(Br)cc21` [Example 61, 7-bromo-1-methyl-2-oxo-4-{4-[3-(trifluoromethoxy)phenoxy]piperidin-1-yl}-1,2-dihydroquinoline-3-carbonitrile], the IC50 is reported as 22 nM.
`Cn1c(=O)c(C#N)c(N2CCC(Oc3ccc(OC(F)(F)F)cc3)CC2)c2ccc(O)cc21` [Example 62, 7-hydroxy-1-methyl-2-oxo-4-{4-[4-(trifluoromethoxy)phenoxy]piperidin-1-yl}-1,2-dihydroquinoline-3-carbonitrile] gave an IC50 of 2.3 nM.
With `Cn1c(=O)c(C#N)c(N2CCC(Oc3ccc(OC(F)(F)F)cc3)CC2)c2ccc(F)cc21` [Example 63, 7-fluoro-1-methyl-2-oxo-4-{4-[4-(trifluoromethoxy)phenoxy]piperidin-1-yl}-1,2-dihydroquinoline-3-carbonitrile] the IC50 was 12 nM.
In the case of `Cn1c(=O)c(C#N)c(N2CCC(Oc3ccc(OC(F)(F)F)cc3)CC2)c2ccc(Cl)cc21` [Example 64, 7-chloro-1-methyl-2-oxo-4-{4-[4-(trifluoromethoxy)phenoxy]piperidin-1-yl}-1,2-dihydroquinoline-3-carbonitrile], the IC50 is reported as 16 nM.
In the case of `COc1ccc2c(N3CCC(Oc4ccc(Cl)cc4)CC3)c(C#N)c(=O)n(C)c2c1` [Example 65, 4-[4-(4-chlorophenoxy)piperidin-1-yl]-7-methoxy-1-methyl-2-oxo-1,2-dihydroquinoline-3-carbonitrile], the IC50 is reported as 7.3 nM.
`COc1ccc2c(N3CCC(Oc4ccc(C(F)(F)F)cc4)CC3)c(C#N)c(=O)n(C)c2c1` [Example 66, 7-methoxy-1-methyl-2-oxo-4-{4-[4-(trifluoromethyl)phenoxy]piperidin-1-yl}-1,2-dihydroquinoline-3-carbonitrile] gave an IC50 of 14 nM.
Work on `Cc1ccc2c(N3CCC(Oc4ccc(OC(F)(F)F)cc4)CC3)c(C#N)c(=O)n(C)c2c1` [Example 67, 1,7-dimethyl-2-oxo-4-{4-[4-(trifluoromethoxy)phenoxy]piperidin-1-yl}-1,2-dihydroquinoline-3-carbonitrile] yielded an IC50 of 6.4 nM.
`Cn1c(=O)c(C#N)c(N2CCC(Sc3ccccc3)CC2)c2ccc(C3CC3)cc21` [Example 68, 7-cyclopropyl-1-methyl-2-oxo-4-[4-(phenylsulfanyl)piperidin-1-yl]-1,2-dihydroquinoline-3-carbonitrile] was tested, and the IC50 was 29 nM.
`CCCCOc1ccc2c(N3CCC(Sc4ccccc4)CC3)c(C#N)c(=O)n(C)c2c1` [Example 69, 7-butoxy-1-methyl-2-oxo-4-[4-(phenylsulfanyl)piperidin-1-yl]-1,2-dihydroquinoline-3-carbonitrile] was tested, and the IC50 was 507 nM.
In the case of `Cn1c(=O)c(C#N)c(N2CCC(Oc3ccccc3)CC2)c2ccc(OC3CC3)cc21` [Example 70, 7-(cyclopropyloxy)-1-methyl-2-oxo-4-(4-phenoxypiperidin-1-yl)-1,2-dihydroquinoline-3-carbonitrile], the IC50 is reported as 17 nM.
In the case of `COc1ccc2c(N3CCC(Oc4ccc(OC(F)(F)F)cc4)CC3)c(C#N)c(=O)n(C)c2c1` [Example 71, 7-methoxy-1-methyl-2-oxo-4-{4-[4-(trifluoromethoxy)phenoxy]piperidin-1-yl}-1,2-dihydroquinoline-3-carbonitrile], the IC50 is reported as 5.7 nM.
Work on `Cn1c(=O)c(C#N)c(N2CCC(Oc3ccc(Cl)cc3)CC2)c2ccc(C3COC3)cc21` [Example 72, 4-[4-(4-chlorophenoxy)piperidin-1-yl]-1-methyl-7-(oxetan-3-yl)-2-oxo-1,2-dihydroquinoline-3-carbonitrile] yielded an IC50 of 16 nM.
`Cn1c(=O)c(C#N)c(N2CCC(Oc3cccc(Cl)c3)CC2)c2ccc(C3COC3)cc21` [Example 73, 4-[4-(3-chlorophenoxy)piperidin-1-yl]-1-methyl-7-(oxetan-3-yl)-2-oxo-1,2-dihydroquinoline-3-carbonitrile] showed an IC50 of 13 nM.
Molecule `COCCc1ccc2c(N3CCC(Oc4cccc(Cl)c4)CC3)c(C#N)c(=O)n(C)c2c1` [Example 74, 4-[4-(3-chlorophenoxy)piperidin-1-yl]-7-(2-methoxyethyl)-1-methyl-2-oxo-1,2-dihydroquinoline-3-carbonitrile] has an IC50 of 3.5 nM.
Molecule `COCCc1ccc2c(N3CCC(Oc4ccc(Cl)cc4)CC3)c(C#N)c(=O)n(C)c2c1` [Example 75, 4-[4-(4-chlorophenoxy)piperidin-1-yl]-7-(2-methoxyethyl)-1-methyl-2-oxo-1,2-dihydroquinoline-3-carbonitrile] has an IC50 of 3.7 nM.
In the case of `COCCc1ccc2c(N3CCC(Oc4cccc(OC(F)(F)F)c4)CC3)c(C#N)c(=O)n(C)c2c1` [Example 76, 7-(2-methoxyethyl)-1-methyl-2-oxo-4-{4-[3-(trifluoromethoxy)phenoxy]piperidin-1-yl}-1,2-dihydroquinoline-3-carbonitrile], the IC50 is reported as 6.8 nM.
`Cn1c(=O)c(C#N)c(N2CCC(Oc3cccc(OC(F)(F)F)c3)CC2)c2ccc(C3COC3)cc21` [Example 77, 1-methyl-7-(oxetan-3-yl)-2-oxo-4-{4-[3-(trifluoromethoxy)phenoxy]piperidin-1-yl}-1,2-dihydroquinoline-3-carbonitrile] was tested, and the IC50 was 17 nM.
With `Cn1c(=O)c(C#N)c(N2CCC(Oc3cccc(OC(F)(F)F)c3)CC2)c2ccc(P(C)(C)=O)cc21` [Example 78, 7-(dimethylphosphoryl)-1-methyl-2-oxo-4-{4-[3-(trifluoromethoxy)phenoxy]piperidin-1-yl}-1,2-dihydroquinoline-3-carbonitrile] the IC50 was 1130 nM.
In the case of `Cn1c(=O)c(C#N)c(N2CCC(Oc3ccc(OC(F)(F)F)cc3)CC2)c2ccc(P(C)(C)=O)cc21` [Example 79, 7-(dimethylphosphoryl)-1-methyl-2-oxo-4-{4-[4-(trifluoromethoxy)phenoxy]piperidin-1-yl}-1,2-dihydroquinoline-3-carbonitrile], the IC50 is reported as 416 nM.
